Earlier results on one compound are cited in patent US20060210650A1, “Supplemental dietary composition for promoting weight loss” (priority 2004, published 2006).

SMILES strings stand for the structures.

The conditions of this data set: 8-week study.

In the case of `O=C(O)CC(O)(C(=O)O)C(O)C(=O)O` (single isomer, unassigned; (-)) [HCA, (−) hydroxycitric acid], the “High-Density Lipoproteins and excretion of urinary fat metabolites” value was “increased”; the “LDL-cholesterol, triglycerides and serum leptin levels” value is “decrease”.
